From patent publication US20070072946A1 (priority 2005, published 2007)
Where “and” joins values, the source holds several entries; their conditions need not be identical. Identical values can stand only once. Counter-ions that a name gives are not always drawn.

Assays:
[1] = system: subjects suffering from fibromyalgia syndrome; details: cited from earlier work; for subjects with significant clinical improvement: after one month; for long-term efficacy: at six months, 19% improvement with placebo; for difference from placebo: at three months
patients with FMS = details: cited from earlier work
[2] = system: patients who met the 1990 ACR criteria for fibromyalgia syndrome; assay: Multi-center double-blind, randomized, placebo-controlled study of milnacipran for fibromyalgia (Example 1, FMS031); format: in vivo, human; details: for m, number of responders: observed cases; for percentage of responders (greater than 30% reduction in pain from baseline and improvement on the PGIC): observed cases (OC), hydrochloride
Procedure: The primary outcome was a composite responder analysis assessing response rate at weeks 14 and 15, and the secondary analysis assessed response rate at weeks 26 and 27.
This was a multi-center, randomized, double-blinded, placebo-controlled three-arm study, which enrolled 888 patients who met the 1990 ACR criteria for fibromyalgia syndrome as well as the more detailed admission criteria outlined in the protocol.
Patients recorded baseline symptoms for the first two weeks after washing off anti-depressants, benzodiazepines, and certain other drugs that could potentially interfere with efficacy measurements.
All randomized medications (placebo and milnacipran) were administered in a split-dose (BID) fashion. The doses were administered in a dose escalation regimen as outlined below: • Step 1: 12.5 mg 1 day (12.5 mg pm) • Step 2: 25 mg 2 days (12.5 mg am, 12.5 mg pm) • Step 3: 50 mg 4 days (25 mg am, 25 mg pm) • Step 4: 100 mg 7 days (50 mg am, 50 mg pm) • Step 5: 200 mg 7 days (100 mg am, 100 mg pm).
Patients were required to complete electronic diary, as well as additional paper assessments as described in the schedule of study assessments.
In addition to the daily completion of a proprietary electronic patient diary, the following assessments were obtained:
a. Primary Variables: patient global impression of change (PGIC) and the Fibromyalgia Impact Questionnaire (FIQ);
d. FMS Status Assessments:, Patient pain 24 hour and 7 day recall VAS, the SF-36, Multiple Ability Self-report Questionnaire (MASQ, cognitive function), the Multidimensional Health Assessment Questionnaire (MDHAQ) and the Multi-dimensional Fatigue Inventory (MFI). Diary assessments include current pain (morning, random daily, and evening reports); daily recall pain (morning report); medications taken (evening report); overall pain past week (weekly report), overall fatigue in the last week (weekly report), and the extent that pain kept the patient from caring for themselves (weekly report).
The primary endpoint of this study was a composite responder analysis implementing analysis of three domains of interest, evaluated at […]. The domains measured were:
1) pain (measured by an electronic diary as a daily recall pain score, calculated to weekly average scores);
2) patient global (measured by the PGIC, 1-7 scale); and
3) physical function (measured by the FIQ-PF).
For the primary analysis, the pain domain score was determined by a calculation that compared the average of treatment weeks 14 and 15 to the two baseline weeks, and treatment weeks 26 and 27 vs. baseline for the secondary analysis. The last observation was carried forward if neither the week 14 nor week 15 (or week 26/27) patient self-reported pain score is available to compare to the baseline value.
A responder was defined as a subject who experienced a greater than 30% reduction in pain from baseline and improvement on the PGIC.
See Table 1 for a summary of the results in the Intent-to-Treat Population and Table 2 for a summary of the Last Observation Carried Forward (LOCF), Baseline Observation Carried Forward (BOCF) and study completer (OC) populations. LOCF is an analysis in which observations are carried forward to the last time point for patients who dropped out. The LOCF analysis treats the carried-forward data as observed data at the last time point. BOCF is an analysis that requires the patient remain active in the trial to be evaluated for response. If a patient withdraws from the trial for any reason they are classed as a non-responder irregardless of their pain and global scores at the time of withdrawal.

fibromyalgia patients = details: cited from earlier work
[3] = both milnacipran treatment groups (BID and QD), up to 200 mg/day

CN(C)CCC=C1c2ccccc2CCc2ccccc21 [amitriptyline]
subjects with significant clinical improvement [1]: 21% | long-term efficacy [1]: no long-term efficacy could be demonstrated | difference from placebo [1]: no difference between either treatment group and placebo

COc1ccc(C(CN(C)C)C2(O)CCCCC2)cc1 (centres unmarked) [venlafaxine]
patients with insomnia requiring adjunctive medical therapy (patients with FMS; of 11 completing patients): 3 patients | patients with a positive response (50% or greater improvement in two different measurements of overall pain) (patients with FMS; of the 11 patients that completed the study): 6 patients

CN(C)CCC=C1c2ccccc2C=Cc2ccccc21 [cyclobenzaprine]
subjects with significant clinical improvement [1]: 12% | long-term efficacy [1]: no long-term efficacy could be demonstrated | difference from placebo [1]: no difference between either treatment group and placebo

CCN(CC)C(=O)C1(c2ccccc2)CC1CN (centres unmarked) [milnacipran, Z-2-aminomethyl-1-phenyl-N,N-diethylcyclopropanecarboxamide hydrochloride]
efficacy of low dose compared with high dose ([2]; 100 mg/day vs 200 mg/day, long-term treatment): almost as effective as continued administration of high dose milnacipran | Individual Component Responder Rate, PGIC (LOCF) ([2]; 100 mg, 3 month): 54.0% | Individual Component Responder Rate, Pain (LOCF) ([2]; 100 mg, 3 month): 35.7% | Pain Composite Responder Rate, Sensitivity Analysis I (BOCF) ([2]; 100 mg, 3 month): 32.1% | Pain Composite Responder Rate, Sensitivity Analysis II ([2]; 100 mg, 3 month): 32.% | Pain Composite Responder Rate, Sensitivity Analysis III ([2]; 100 mg, 3 month): 32.1% | Pain Composite Responder Rate, Primary Analysis (LOCF) ([2]; 100 mg, 3 month, N = 224): 33.5% | Individual Component Responder Rate, PGIC (LOCF) ([2]; 100 mg, 6 month): 49.6% | Individual Component Responder Rate, Pain (LOCF) ([2]; 100 mg, 6 month): 35.7% | Pain Composite Responder Rate, Sensitivity Analysis I (BOCF) ([2]; 100 mg, 6 month): 26.8% | Pain Composite Responder Rate, Sensitivity Analysis II ([2]; 100 mg, 6 month): 27.2% | Pain Composite Responder Rate, Sensitivity Analysis III ([2]; 100 mg, 6 month): 29.5% | Pain Composite Responder Rate, Primary Analysis (LOCF) ([2]; 100 mg, 6 month, N = 224): 30.8% | m, number of responders ([2]; 100 mg, treatment weeks 14-15, n = 135): 72 | m, number of responders ([2]; 100 mg, treatment weeks 26-27, n = 121): 60 | Individual Component Responder Rate, PGIC (LOCF) ([2]; 200 mg, 3 month): 50.6% | Individual Component Responder Rate, Pain (LOCF) ([2]; 200 mg, 3 month): 38.3% | Pain Composite Responder Rate, Sensitivity Analysis I (BOCF) ([2]; 200 mg, 3 month): 32.4% | Pain Composite Responder Rate, Sensitivity Analysis II ([2]; 200 mg, 3 month): 32.7% | Pain Composite Responder Rate, Sensitivity Analysis III ([2]; 200 mg, 3 month): 32.4% | Pain Composite Responder Rate, Primary Analysis (LOCF) ([2]; 200 mg, 3 month, N = 441): 34.9% | Individual Component Responder Rate, PGIC (LOCF) ([2]; 200 mg, 6 month): 49.9% | Individual Component Responder Rate, Pain (LOCF) ([2]; 200 mg, 6 month): 35.4% | Pain Composite Responder Rate, Sensitivity Analysis I (BOCF) ([2]; 200 mg, 6 month): 27.0% | Pain Composite Responder Rate, Sensitivity Analysis II ([2]; 200 mg, 6 month): 28.6% | Pain Composite Responder Rate, Sensitivity Analysis III ([2]; 200 mg, 6 month): 29.9% | Pain Composite Responder Rate, Primary Analysis (LOCF) ([2]; 200 mg, 6 month, N = 441): 32.2% | m, number of responders ([2]; 200 mg, treatment weeks 14-15, n = 260): 143 | m, number of responders ([2]; 200 mg, treatment weeks 26-27, n = 230): 119 | long-term relief from fibromyalgia and its symptoms ([2]; continued daily administration for at least three months): provides long-term (at least three months) relief from fibromyalgia and its symptoms | percentage of responders (greater than 30% reduction in pain from baseline and improvement on the PGIC) ([2]; milnacipran 100 mg/day BID, 3 months (treatment weeks 14-15)): 53.33% and 53.3% | percentage of responders (greater than 30% reduction in pain from baseline and improvement on the PGIC) ([2]; milnacipran 100 mg/day BID, 3 months (treatment weeks 14-15), listed as Milnacipran): 53.33% | percentage of responders (greater than 30% reduction in pain from baseline and improvement on the PGIC) ([2]; milnacipran 100 mg/day BID, 6 months (treatment weeks 26-27)): 49.59% and 49.6% | percentage of responders (greater than 30% reduction in pain from baseline and improvement on the PGIC) ([2]; milnacipran 100 mg/day BID, 6 months (treatment weeks 26-27), listed as Milnacipran): 49.59% | percentage of responders (greater than 30% reduction in pain from baseline and improvement on the PGIC) ([2]; milnacipran 200 mg/day BID, 3 months (treatment weeks 14-15)): 55.0% | percentage of responders (greater than 30% reduction in pain from baseline and improvement on the PGIC) ([2]; milnacipran 200 mg/day BID, 3 months (treatment weeks 14-15), listed as Milnacipran): 55.00% | percentage of responders (greater than 30% reduction in pain from baseline and improvement on the PGIC) ([2]; milnacipran 200 mg/day BID, 6 months (treatment weeks 26-27)): 51.74% and 51.7% | percentage of responders (greater than 30% reduction in pain from baseline and improvement on the PGIC) ([2]; milnacipran 200 mg/day BID, 6 months (treatment weeks 26-27), listed as Milnacipran): 51.74% | deaths or serious adverse events associated with treatment (fibromyalgia patients; Phase II study): no deaths or serious adverse events | acute (short-term) efficacy on the symptom of pain in FMS (fibromyalgia patients; Phase II trial): effective acute (short-term) therapy for the symptom of pain in FMS | completers reporting an improvement in their overall status on the PGIC (fibromyalgia patients; [3]): over 70% | completers reporting worsening on the PGIC (fibromyalgia patients; [3]): 10% | patients with elevation in hepatic enzymes reported as adverse event (fibromyalgia patients; milnacipran-treated patients): 2% | efficacy of BID versus QD dosing in treating pain (fibromyalgia patients; twice-daily dosing compared with QD): more effective in treating pain than QD dosing | efficacy of BID versus QD dosing on fatigue, mood, global wellness, and function (fibromyalgia patients; twice-daily vs once-daily dosing, up to 200 mg/day): approximately equally effective
